Here are results for two compounds from US9944656B2, “Benzothiazole macrocycles as inhibitors of human immunodeficiency virus replication” (priority 2014, dated 2018).

For the assay, the system named is recombinant NL-RLuc virus (HIV, NL4-3 derived) in MT-2 cells. Briefly: Inhibition of HIV replication (NL-RLuc virus in MT-2 cells, luciferase readout). In kind it is cell-based. The conditions noted are these: 5 days of incubation, 10% FBS. The text has this: Inhibition of HIV Replication.
A recombinant NL-RLuc proviral clone was constructed in which a section of the nef gene from NL4-3 was replaced with the Renilla Luciferase gene. This virus is fully infectious and can undergo multiple cycles of replication in cell culture. In addition, the luciferous reporter provides a simple and easy method for quantitating the extent of virus growth and consequently, the antiviral activity of test compounds. The plasmid pNLRLuc contains the proviral NL-Rluc DNA cloned into pUC 18 at the PvuII site. The NL-RLuc virus was prepared by transfection of 293T cells with the plasmid pNLRLuc. Transfections were performed using the LipofectAMINE PLUS kit from Invitrogen (Carlsbad, Calif.) according to the manufacturer and the virus generated was titered in MT-2 cells. For susceptibility analyses, the titrated virus was used to infect MT-2 cells in the presence of compound, and after 5 days of incubation, cells were processed and quantitated for virus growth by the amount of expressed luciferase. […] Luciferase was quantitated using the Dual Luciferase kit from Promega (Madison, Wis.). Susceptibility of viruses to compounds was determined by incubation in the presence of serial dilutions of the compound. […]

Take `Cc1ccc2c(c1)-c1cccc(c1)-c1nc3cc(C)c([C@H](OC(C)(C)C)C(=O)O)c(c3s1)-c1ccc3c(c1)C(CCCC[C@H](C)O2)CCO3` (single isomer, unassigned) [Example 1]: the EC50 is 5620 nM. The figure for `Cc1ccc2c(c1)-c1cccc(c1)-c1nc3cc(C)c([C@H](OC(C)(C)C)C(=O)O)c(c3s1)-c1ccc3c(c1)C(CCCC[C@H](C)O2)CCO3` (single isomer, unassigned) [Example 2] is 350 nM.

What is called EC50 is the concentration needed to bring the measured effect to its halfway point.
